Measurements: US5102884A, “Substituted benzoylurea compounds or their salts, processes for their production and antitumour compositions containing them” (Ishihara Sangyo Kaisha Ltd., priority 1989, dated 1992)

Columns and labels:
[1] = system: P-388 leukemia; experiment: Antitumour activity, Test Example 1 (intraperitoneally transplanted--intraperitoneally administered); format: in vivo, BDF1 mouse; details: i.p., days 1 and 8, mortality observed 30 days, saline control = 0%; for ILS at 50 mg/kg: 50 mg/kg/day active ingredient; for ILS at 6.25 mg/kg: 6.25 mg/kg/day active ingredient; for ILS at 100 mg/kg: 100 mg/kg/day active ingredient
Description: 1×10^6 of P-388 leukemia cells per mouse were intraperitoneally transplanted into BDF1 mouse. […] The increase life span of each group was determined on such basis that the medium survival time of a control group to which physiological saline was administered was regarded to be 0% of increase life span (ILS). […] | (Note) *Increase life span is calculated by the following equation: | Increase life span % (ILS) =- | [drawing 18]

[2] = system: P-388 leukemia; experiment: Antitumour activity, Test Example 2 (intraperitoneally transplanted--intravenously injected); format: in vivo, BDF1 mouse; details: 10 mg/kg (active ingredient mg/kg/day), i.v. from the tail, days 1 and 8; fatty emulsion (Formulation Example 10); saline control = 0%
Description: 1×10^6 of P-388 leukemia cells per mouse were intraperitoneally transplanted to BDF1 mouse. Each formulation (formulated in accordance with the below-mentioned Formulation Example 10) was intravenously injected from the tail on days 1 and 8 after the transplantation.
The increase life span (ILS, %) of each treated group was determined on such basis that the median survival time of a control group to which a physiolosical saline was administered was regarded to be 0% of increase life span (ILS). In the cases where Compounds No. 1 and No. 11 were administered at a dose (active ingredient mg/kg/day) of 10 mg/kg, ILS (%) was 46 and 27, respectively. (Note) * The increase life span was calculated in the
same manner as in Test Example 1.

[3] = Solubility to a non-aqueous solvent, Test Example 3; format: physicochemical; details: 18° to 20° C.; for Solubility, Medium chain triglyceride: medium chain triglyceride (ODO)
Description: A stirring magnet was put into a 10 ml or 100 ml egg plant flask equipped with a stopper, and 50 mg of a test compound was introduced into this flask. Further, a suitable amount of a desired solvent was introduced thereinto, and the solubility was determined.

[4] = Mus musculus, P388, ip, 720 h, 25 mg/kg/day active ingredient, read-out: Increase life span (ILS)
[5] = Mus musculus, P388, ip, 720 h, read-out: Increase life span (ILS)
[6] = 12.5 mg/kg/day active ingredient
[7] = Mus musculus, P388, ip, 720 h, 12.5 mg/kg/day active ingredient, read-out: Increase life span (ILS)

SMILES | ILS at 25 mg/kg [1, 4] | ILS at 50 mg/kg [1, 5] | ILS at 12.5 mg/kg [1, 7] | other results
CCCC(=O)Nc1ccccc1C(=O)NC(=O)Nc1ccc(Oc2ncc(Br)cn2)c(C)c1 [Compound 50] | 49% | 150% | – | –
CN(C)c1ccccc1C(=O)NC(=O)Nc1ccc(Oc2ncc(Br)cn2)c([N+](=O)[O-])c1 [Compound 13] | – | 27% | – | –
Cc1cc(NC(=O)NC(=O)c2ccccc2N2CCOCC2)ccc1Oc1ncc(Br)cn1 [Compound 34, N-[4-(5-bromo-2-pyrimidinyloxy)-3-methylphenyl]-N'-(2-morpholinobenzoyl)urea] | – | – | – | ILS at 6.25 mg/kg [1, 5]: 49%
Cc1cc(NC(=O)NC(=O)c2ccccc2N(C)C)ccc1Oc1ncc(Br)cn1 [Compound 1, N-[4-(5-bromo-2-pyrimidinyloxy)-3methylphenyl]-N'-[2-(dimethylamino)benzoyl]urea] | – | – | – | Increase life span (ILS) [1, 6]: 126%; Increase life span (ILS) ([1]; 25 mg/kg/day active ingredient): 183%; Increase life span (ILS) [2]: 46%; Solubility, Medium chain triglyceride [3]: 2.1-2.3%; Solubility, Soybean oil [3]: 0.46-0.49%
CN(C)c1cccc(F)c1C(=O)NC(=O)Nc1ccc(Oc2ncc(Br)cn2)c(Cl)c1 [Compound 4] | – | 135% | – | –
Cc1cc(NC(=O)NC(=O)c2ccccc2N(S(C)(=O)=O)S(C)(=O)=O)ccc1Oc1ncc(Br)cn1 [Compound 54] | – | 49% | – | –
Cc1cc(NC(=O)NC(=O)c2ccccc2N(C)C)ccc1Oc1ncc(Cl)cn1 [Compound 11, N-[4-(5-chloro-2-pyrimidinyloxy)-3methylphenyl]-N'-[2-(dimethylamino)benzoyl]urea] | 99% | 132% | – | Increase life span (ILS) [2]: 27%; Solubility, Medium chain triglyceride [3]: 1.5-1.8%; Solubility, Soybean oil [3]: 0.15-0.16%
CN(C)c1ccccc1C(=O)NC(=O)Nc1ccc(Oc2ncc(Cl)cn2)c(C(F)(F)F)c1 [Compound 10, N-[4-(5-chloro-2-pyrimidinyloxy)-3-trifluoromethylphenyl]-N'-[2-(dimethylamino)benzoyl]urea] | – | – | 39% | –
CN(C)c1ccccc1C(=O)NC(=O)Nc1ccc(Oc2ncc(Br)cn2)c(C(F)(F)F)c1 [Compound 9, N-[4-(5-bromo-pyrimidinyloxy)-3-trifluoromethylphenyl]-N'-[2(dimethylamino)benzoyl]urea] | – | – | 80% | –
CCN(CC)c1ccccc1C(=O)NC(=O)Nc1ccc(Oc2ncc(Br)cn2)c(C)c1 [Compound 33] | 49% | – | – | Solubility, Soybean oil [3]: at least 13.6%
Cc1cc(NC(=O)NC(=O)c2ccccc2N)ccc1Oc1ncc(Br)cn1 [Compound 27, N-(2-aminobenzoyl)-N'-[4-(5-bromo-2-pyrimidinyloxy)-3-methylphenyl]urea] | 160% | – | 126% | –
Cc1cc(NC(=O)NC(=O)c2c(F)cccc2N(C)C)ccc1Oc1ncc(Br)cn1 [Compound 3] | 150% | – | 50% | –
CCCCCCCCC(=O)Nc1ccccc1C(=O)NC(=O)Nc1ccc(Oc2ncc(Br)cn2)c(C)c1 [Compound 51] | – | 184% | – | –
Nc1ccccc1C(=O)NC(=O)Nc1ccc(Oc2ncc(Br)cn2)c(Cl)c1 [Compound 26, N-(2-aminobenzoyl)-N'-[4-(5-bromo-2-pyrimidinyloxy)-3-chlorophenyl]urea] | > 137% | – | 93% | –
COc1cc(NC(=O)NC(=O)c2ccccc2N(C)C)ccc1Oc1ncc(Cl)cn1 [Compound 35] | – | – | – | ILS at 100 mg/kg [1, 5]: 27%; ILS at 200 mg/kg ([1]; Mus musculus, P388, ip, 720 h, 200 mg/kg/day active ingredient, read-out: Increase life span (ILS)): 53%
CC(=O)N(C)c1ccccc1C(=O)NC(=O)Nc1ccc(Oc2ncc(Br)cn2)c(C)c1 [Compound 52] | – | – | 139% | ILS at 6.25 mg/kg [1, 5]: 39%
Cc1cc(NC(=O)NC(=O)c2ccccc2N(C)C)ccc1Oc1ncc(Br)cn1.Cl [Compound 2, N-[4-(5-bromo-2-pyrimidinyloxy)-3methylphenyl]-N'-[2-(dimethylamino)benzoyl]urea hydrochloride] | – | – | – | Increase life span (ILS) [1, 6]: 94%; Increase life span (ILS) ([1]; 25 mg/kg/day active ingredient): 206%
CC(=O)Nc1ccccc1C(=O)NC(=O)Nc1ccc(Oc2ncc(Br)cn2)c(C)c1 [Compound 49, N-[2-(acetylamino]benzoyl]-N'-[4-(5-bromo-2-pyrimidinyloxy)-3-methylphenyl]urea] | 59% | – | 39% | –
CN(C)c1ccccc1C(=O)NC(=O)Nc1ccc(Oc2ncc(Cl)cn2)c([N+](=O)[O-])c1 [Compound 36] | – | – | – | ILS at 100 mg/kg [1, 5]: 68%
